Laboratory results as given in patent US20100069409A1, “"NOVEL COMPOUNDS"” (GLAXO GROUP LIMITED, priority 2006, published 2010).

SMILES	melting point
Cc1c(F)cc(C(=O)NC2CC2)cc1-c1nc(NC(CO)CO)nc2c1ccc(=O)n2-c1c(F)cccc1F [Example 49, N-cyclopropyl-3-(8-(2,6-difluorophenyl)-2-{[2-hydroxy-1-(hydroxymethyl)ethyl]amino}-7-oxo-7,8-dihydropyrido[2,3-d]pyrimidin-4-yl)-5-fluoro-4-methylbenzamide]	214.2 to 217.5 °C
CSc1nc(-c2cc(C(=O)N(C)C)ccc2C)c2c(n1)N(c1c(F)cccc1F)C(=O)NC2 [Example 73, 3-[8-(2,6-difluorophenyl)-2-(methylthio)-7-oxo-5,6,7,8-tetrahydropyrimido[4,5-d]pyrimidin-4-yl]-N,N,4-trimethylbenzamide]	144 to 147 °C
